Data from patent US20260042731A1, “(2,4-DICHLOROPHENOXY)ACETIC ACID ANALOGS” (CORTEVA AGRISCIENCE LLC, priority 2022, published 2026).
Read-outs that look alike come from different tables or passages of the source.

Tests used:
[1] = system: Abutilon theophrasti (ABUTH), velvetleaf; test: Postemergence herbicide evaluation, growth of Abutilon theophrasti (ABUTH); type: in vivo; conditions: Abutilon theophrasti, post-emergence, percent reduction in plant size vs untreated control, read-out: AVE. ABUTH; for pest or weed control at 280 g/ha: 280 g ae/ha; for pest or weed control at 560 g/ha: 560 g ae/ha
[2] = system: Amaranthus rudis (AMATA), tall water hemp; test: Postemergence herbicide evaluation, growth of Amaranthus rudis (AMATA); type: in vivo; conditions: Amaranthus tuberculatus, post-emergence, percent reduction in plant size vs untreated control, read-out: Ave. AMATA; for pest or weed control at 280 g/ha: 280 g ae/ha; for pest or weed control at 560 g/ha: 560 g ae/ha
[3] = system: Ambrosia artemisiifolia (AMBEL), common ragweed; test: Postemergence herbicide evaluation, growth of Ambrosia artemisiifolia (AMBEL); type: in vivo; conditions: Ambrosia artemisiifolia, post-emergence, percent reduction in plant size vs untreated control, read-out: AVE. AMBEL; for pest or weed control at 280 g/ha: 280 g ae/ha; for pest or weed control at 560 g/ha: 560 g ae/ha
[4] = system: Chenopodium album (CHEAL), common lambsquarters; test: Postemergence herbicide evaluation, growth of Chenopodium album (CHEAL); type: in vivo; conditions: Chenopodium album, post-emergence, percent reduction in plant size vs untreated control, read-out: Ave. CHEAL; for pest or weed control at 280 g/ha: 280 g ae/ha; for pest or weed control at 560 g/ha: 560 g ae/ha
[5] = system: weeds ABUTH, AMATA, AMBEL, CHEAL, ERICA; test: Postemergence herbicide evaluation, overall average % weed control across ABUTH, AMATA, AMBEL, CHEAL and ERICA; type: in vivo; conditions: post-emergence, average over five weeds, read-out: Overall Ave % Weed Control; for pest or weed control at 280 g/ha: 280 g ae/ha; for pest or weed control at 560 g/ha: 560 g ae/ha
[6] = Volatility of compounds measured by thermogravimetric analysis (TGA); type: physicochemical
[7] = system: glyphosate resistant Conyza canadensis (L.) (ERICA), horseweed; test: Postemergence herbicide evaluation, growth of Conyza canadensis (ERICA); type: in vivo; conditions: Erigeron canadensis, post-emergence, percent reduction in plant size vs untreated control, read-out: Ave. ERICA; for pest or weed control at 280 g/ha: 280 g ae/ha; for pest or weed control at 560 g/ha: 560 g ae/ha

SMILES	pest or weed control at 280 g/ha ([1]; 168 h, 7 DAA) [%]	pest or weed control at 280 g/ha ([1]; 336 h, 14 DAA) [%]	pest or weed control at 560 g/ha ([1]; 336 h, 14 DAA) [%]	pest or weed control at 280 g/ha ([1]; 504 h, 21 DAA) [%]	pest or weed control at 560 g/ha ([1]; 504 h, 21 DAA) [%]	pest or weed control at 280 g/ha ([2]; 168 h, 7 DAA) [%]	pest or weed control at 280 g/ha ([2]; 336 h, 14 DAA) [%]	pest or weed control at 560 g/ha ([2]; 336 h, 14 DAA) [%]	pest or weed control at 280 g/ha ([2]; 504 h, 21 DAA) [%]	pest or weed control at 560 g/ha ([2]; 504 h, 21 DAA) [%]	pest or weed control at 280 g/ha ([3]; 168 h, 7 DAA) [%]	pest or weed control at 280 g/ha ([3]; 336 h, 14 DAA) [%]	pest or weed control at 560 g/ha ([3]; 336 h, 14 DAA) [%]	pest or weed control at 280 g/ha ([3]; 504 h, 21 DAA) [%]	pest or weed control at 560 g/ha ([3]; 504 h, 21 DAA) [%]	pest or weed control at 280 g/ha ([4]; 168 h, 7 DAA) [%]	pest or weed control at 280 g/ha ([4]; 336 h, 14 DAA) [%]	pest or weed control at 560 g/ha ([4]; 336 h, 14 DAA) [%]	pest or weed control at 280 g/ha ([4]; 504 h, 21 DAA) [%]	pest or weed control at 560 g/ha ([4]; 504 h, 21 DAA) [%]	other results
O=C(COc1ccc(Cl)cc1Cl)Oc1cccnc1 [Compound E9]	57.5	75	98	88.5	99.5	77.5	85	87.5	92.5	94	80	90	97.5	100	100	75	96.5	99	90	93.5	pest or weed control at 660 g/ha ([1]; 168 h, 660 g ae/ha, 7 DAA): 82.5%; pest or weed control at 660 g/ha ([2]; 168 h, 660 g ae/ha, 7 DAA): 92.5%; pest or weed control at 660 g/ha ([3]; 168 h, 660 g ae/ha, 7 DAA): 87.5%; pest or weed control at 660 g/ha ([4]; 168 h, 660 g ae/ha, 7 DAA): 80%; pest or weed control at 280 g/ha ([5]; 168 h, 7 DAA): 74.5%; pest or weed control at 660 g/ha ([5]; 168 h, 660 g ae/ha, 7 DAA): 84%; pest or weed control at 280 g/ha ([5]; 336 h, 14 DAA): 89.2%; pest or weed control at 560 g/ha ([5]; 336 h, 14 DAA): 96.4%; pest or weed control at 280 g/ha ([5]; 504 h, 21 DAA): 94%; pest or weed control at 560 g/ha ([5]; 504 h, 21 DAA): 97.4%; TGA Data (rate of weight loss, volatility) [6]: 0.6748 µg/min; pest or weed control at 280 g/ha ([7]; 168 h, 7 DAA): 82.5%; pest or weed control at 660 g/ha ([7]; 168 h, 660 g ae/ha, 7 DAA): 77.5%; pest or weed control at 280 g/ha ([7]; 336 h, 14 DAA): 99.5%; pest or weed control at 560 g/ha ([7]; 336 h, 14 DAA): 100%; pest or weed control at 280 g/ha ([7]; 504 h, 21 DAA): 99%; pest or weed control at 560 g/ha ([7]; 504 h, 21 DAA): 100%
CCN(CC)OC(=O)COc1ccc(Cl)cc1Cl [Compound A21]	60	67.5	94.5	90	99.5	80	90	87.5	80	100	70	80	98	100	100	77.5	92.5	96.5	97.5	99	pest or weed control at 560 g/ha ([1]; 168 h, 7 DAA): 87.5%; pest or weed control at 560 g/ha ([2]; 168 h, 7 DAA): 85%; pest or weed control at 560 g/ha ([3]; 168 h, 7 DAA): 70%; pest or weed control at 560 g/ha ([4]; 168 h, 7 DAA): 82.5%; pest or weed control at 280 g/ha ([5]; 168 h, 7 DAA): 74.5%; pest or weed control at 560 g/ha ([5]; 168 h, 7 DAA): 81.5%; pest or weed control at 280 g/ha ([5]; 336 h, 14 DAA): 84.4%; pest or weed control at 560 g/ha ([5]; 336 h, 14 DAA): 94.1%; pest or weed control at 280 g/ha ([5]; 504 h, 21 DAA): 93%; pest or weed control at 560 g/ha ([5]; 504 h, 21 DAA): 99.7%; TGA Data (rate of weight loss, volatility) ([6]; value marked *: decomposition of the material was observed): 1.352* μg/min; pest or weed control at 280 g/ha ([7]; 168 h, 7 DAA): 85%; pest or weed control at 560 g/ha ([7]; 168 h, 7 DAA): 82.5%; pest or weed control at 280 g/ha ([7]; 336 h, 14 DAA): 92%; pest or weed control at 560 g/ha ([7]; 336 h, 14 DAA): 94%; pest or weed control at 280 g/ha ([7]; 504 h, 21 DAA): 97.5%; pest or weed control at 560 g/ha ([7]; 504 h, 21 DAA): 100%
